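Compound exposure: 48 hours, 5 concentrations, 96-well plates. GI50 = concentration required for 50% inhibition of growth.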 Activity calls are given as the source filed them. Cut-off read from the data, not from the text of the source: active = GI50 up to about 1.1 µM and inactive = higher.
Key:
Experiment in all cases: NCI-60 cell line screen, 48 h
[1] = tested on: K562
[2] = tested on: A498
[3] = tested on: HCT-15
[4] = tested on: CCRF-CEM
[5] = tested on: RXF 393
[6] = tested on: OVCAR-5
[7] = tested on: Malme-3M
[8] = tested on: T47D
[9] = tested on: Hs-578T
[10] = tested on: NCI/ADR-RES
[11] = tested on: NCI-H522
[12] = tested on: BT-549
[13] = tested on: HOP-92
[14] = tested on: A549
[15] = tested on: MDA-MB-435
[16] = tested on: U-251
[17] = tested on: OVCAR-4
[18] = tested on: M14
[19] = tested on: SNB-19
[20] = tested on: TK-10

Compound | GI50 [1] | GI50 [2] | GI50 [3] | GI50 [4] | GI50 [5] | GI50 [6] | GI50 [7] | GI50 [8] | GI50 [9] | GI50 [10] | GI50 [11] | GI50 [12] | GI50 [13] | GI50 [14] | GI50 [15] | GI50 [16] | GI50 [17] | GI50 [18] | GI50 [19] | GI50 [20]
Cc1nc2ccccc2n1Cc1ccc(NC(=S)NC2CCCCC2)cc1 | 14.7 µM (inactive) | 33.6 µM (inactive) | 8.95 µM | 10 µM (inactive) | 23.8 µM (inactive) | > 100 µM (inactive) | 21.7 µM (inactive) | 5.74 µM (inactive) | 29 µM (inactive) | 35.6 µM (inactive) | 8.34 µM (inactive) | 15.4 µM (inactive) | 41.3 µM (inactive) | 17.4 µM (inactive) | 6.84 µM (inactive) | 32.6 µM (inactive) | 10.1 µM (inactive) | 30.1 µM (inactive) | 32.8 µM (inactive) | > 100 µM (inactive)
O=c1c2cccnc2[nH]c2ccc3[nH]ncc3c12 | > 10 µM (inactive) | 8.49 µM (inactive) | 6.18 µM | > 10 µM (inactive) | > 10 µM (inactive) | > 10 µM (inactive) | > 10 µM (inactive) | > 10 µM (inactive) | > 10 µM (inactive) | > 10 µM (inactive) | > 10 µM (inactive) | > 10 µM (inactive) | > 10 µM (inactive) | > 10 µM (inactive) | > 10 µM (inactive) | > 10 µM (inactive) | > 10 µM (inactive) | > 10 µM (inactive) | > 10 µM (inactive) | > 10 µM (inactive)
Oc1ccc(SCc2ccc(NCc3ccccc3)cc2)cc1 | 31.5 µM (inactive) | 20.1 µM (inactive) | 8.97 µM | 1.24 µM (inactive) | 19.9 µM (inactive) | 27.2 µM (inactive) | 31.7 µM (inactive) | 14.7 µM (inactive) | 53 µM (inactive) | 30.3 µM (inactive) | 20 µM (inactive) | 31.8 µM (inactive) | 43.4 µM (inactive) | 22.1 µM (inactive) | 18.2 µM (inactive) | 24.4 µM (inactive) | 18.1 µM (inactive) | 19.4 µM (inactive) | 23.9 µM (inactive) | 50.4 µM (inactive)
C[C@H](NC(=O)c1ccc(CNC(=O)/C=C/c2cccc(Oc3ccccc3)c2)cc1)c1ccccc1 | > 100 µM (inactive) | 73.6 µM (inactive) | > 100 µM | > 100 µM (inactive) | 26.7 µM (inactive) | > 100 µM (inactive) | > 100 µM (inactive) | 98.2 µM (inactive) | 49.9 µM (inactive) | > 100 µM (inactive) | > 100 µM (inactive) | > 100 µM (inactive) | > 100 µM (inactive) | 55.8 µM (inactive) | > 100 µM (inactive) | 49.2 µM (inactive) | 83.2 µM (inactive) | > 100 µM (inactive) | 37.8 µM (inactive) | 61.4 µM (inactive)
C=CC(=O)N1C/C(=C\c2ccc(F)cc2)C(=O)/C(=C/c2ccc(F)cc2)C1 | 0.185 µM (active) | 0.568 µM (active) | 0.166 µM | 0.0883 µM (active) | 0.185 µM (active) | 0.622 µM (active) | 0.735 µM (active) | 4.57 µM (inactive) | 0.235 µM (active) | 0.365 µM (active) | 0.476 µM (active) | 0.336 µM (active) | 3.03 µM (inactive) | 0.979 µM (active) | 0.299 µM (active) | 0.188 µM (active) | 0.339 µM (active) | 0.328 µM (active) | 0.944 µM (active) | 1 µM (active)
NC1=NCCN1CC(=O)O [CYCLOCREATINE] | > 1000 µM (inactive) | > 1000 µM (inactive) | > 1000 µM | > 1000 µM (inactive) | > 1000 µM (inactive) | > 1000 µM (inactive) | > 1000 µM (inactive) | > 1000 µM (inactive) | 4040 µM (inactive) | > 1000 µM (inactive) | > 10000 µM (inactive) | > 1000 µM (inactive) | > 1000 µM (inactive) | > 1000 µM (inactive) | > 1000 µM (inactive) | > 1000 µM (inactive) | > 1000 µM (inactive) | > 1000 µM (inactive) | > 1000 µM (inactive) | > 1000 µM (inactive)
